Experimental data reported in PMC2151644 (The Journal of General Physiology, 2007).
Residue numbers refer to the chain shown, from its start.

Columns and labels:
[1] = molecular target: T1, epithelial sodium channel (ENaC), β subunit (FLAG-tagged/G525C β-ENaC) (Rattus norvegicus, UniProt P37089+P37090+P37091, P37090:G525C); experiment: dose-response block of short-circuit current in MDCK monolayers; type: cell-based
T1 sequence (P37090 1-638 G525C): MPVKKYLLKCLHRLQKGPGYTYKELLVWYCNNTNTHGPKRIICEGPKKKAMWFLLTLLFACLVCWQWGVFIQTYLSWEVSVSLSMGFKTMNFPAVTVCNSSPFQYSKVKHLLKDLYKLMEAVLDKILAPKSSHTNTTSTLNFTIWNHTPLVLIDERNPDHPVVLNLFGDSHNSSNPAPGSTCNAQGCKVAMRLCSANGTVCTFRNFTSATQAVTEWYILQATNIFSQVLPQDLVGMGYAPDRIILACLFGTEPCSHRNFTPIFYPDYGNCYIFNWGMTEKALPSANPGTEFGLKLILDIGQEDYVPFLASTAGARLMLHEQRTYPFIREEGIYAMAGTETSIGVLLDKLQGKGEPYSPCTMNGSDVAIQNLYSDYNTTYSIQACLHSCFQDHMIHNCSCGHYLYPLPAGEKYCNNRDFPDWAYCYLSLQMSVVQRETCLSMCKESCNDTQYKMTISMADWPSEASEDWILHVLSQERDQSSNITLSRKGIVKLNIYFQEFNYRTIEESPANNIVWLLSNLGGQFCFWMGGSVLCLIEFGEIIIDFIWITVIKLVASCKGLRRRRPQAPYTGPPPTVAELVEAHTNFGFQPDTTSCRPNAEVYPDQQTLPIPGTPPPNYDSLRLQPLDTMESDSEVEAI
T1 sequence (P37089 1-698): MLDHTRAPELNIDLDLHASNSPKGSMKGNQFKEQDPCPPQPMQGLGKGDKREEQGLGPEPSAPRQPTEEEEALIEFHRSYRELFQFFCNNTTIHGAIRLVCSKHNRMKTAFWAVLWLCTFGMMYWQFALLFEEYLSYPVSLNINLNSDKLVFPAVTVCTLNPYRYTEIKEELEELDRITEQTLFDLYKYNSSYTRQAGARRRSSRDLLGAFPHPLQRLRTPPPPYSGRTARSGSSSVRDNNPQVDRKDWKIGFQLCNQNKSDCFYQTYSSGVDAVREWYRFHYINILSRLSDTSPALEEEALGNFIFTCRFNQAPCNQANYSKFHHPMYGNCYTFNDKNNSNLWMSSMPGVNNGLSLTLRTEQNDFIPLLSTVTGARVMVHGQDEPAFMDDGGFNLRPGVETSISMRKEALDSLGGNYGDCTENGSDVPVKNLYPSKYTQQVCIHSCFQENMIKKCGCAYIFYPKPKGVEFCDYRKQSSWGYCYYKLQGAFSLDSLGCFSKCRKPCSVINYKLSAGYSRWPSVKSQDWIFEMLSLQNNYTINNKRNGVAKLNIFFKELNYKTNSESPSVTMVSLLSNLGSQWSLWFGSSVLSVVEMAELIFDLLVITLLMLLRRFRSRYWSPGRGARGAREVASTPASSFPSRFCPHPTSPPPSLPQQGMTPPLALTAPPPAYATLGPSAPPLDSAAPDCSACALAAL
T1 sequence (P37091 1-650): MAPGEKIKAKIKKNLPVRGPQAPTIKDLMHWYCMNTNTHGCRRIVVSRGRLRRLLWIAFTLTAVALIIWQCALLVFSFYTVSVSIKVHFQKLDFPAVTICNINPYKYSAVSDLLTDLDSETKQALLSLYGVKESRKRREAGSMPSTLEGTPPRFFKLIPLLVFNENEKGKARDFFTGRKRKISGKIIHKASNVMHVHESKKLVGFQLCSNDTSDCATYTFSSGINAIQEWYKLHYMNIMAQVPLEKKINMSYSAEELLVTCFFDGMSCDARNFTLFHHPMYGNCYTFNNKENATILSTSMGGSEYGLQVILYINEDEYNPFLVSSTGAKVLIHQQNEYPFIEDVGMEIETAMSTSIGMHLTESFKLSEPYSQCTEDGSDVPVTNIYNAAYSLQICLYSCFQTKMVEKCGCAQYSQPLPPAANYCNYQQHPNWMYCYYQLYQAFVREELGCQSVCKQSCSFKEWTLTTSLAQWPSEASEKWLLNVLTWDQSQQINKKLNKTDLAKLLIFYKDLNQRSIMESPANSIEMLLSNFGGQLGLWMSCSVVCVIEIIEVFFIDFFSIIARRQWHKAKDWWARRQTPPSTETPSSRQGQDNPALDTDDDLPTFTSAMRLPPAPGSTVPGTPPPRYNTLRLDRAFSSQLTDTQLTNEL

[2] = molecular target: T2, epithelial sodium channel (ENaC), β subunit (FLAG-tagged β-ENaC) (Rattus norvegicus, UniProt P37089+P37090+P37091); experiment: as above; type: cell-based
T2 sequence (P37090 1-638): T1 sequence (P37090 1-638 G525C) with C525G
T2 sequence (P37089 1-698): T1 sequence (P37089 1-698)
T2 sequence (P37091 1-650): T1 sequence (P37091 1-650)

Row | Structure (SMILES) | Ki [1] [nM] | Ki [2] [nM]
1 | N=C(N)NC(=O)c1nc(Cl)c(N)nc1N [amiloride] | 36000 | 84
2 | NC(=NCc1ccccc1)NC(=O)c1nc(Cl)c(N)nc1N [benzamil] | 2900 | 18
